Results: patent US7645603B2, “Cells having cardiac glycoside resistance” (Avaris AB, priority 2003, dated 2010)

Experiments:
HeLa cells [1] = assay: Ouabain toxicity assay, transiently transfected HeLa cells, cell viability; type: cell-based, human; conditions: 10 μM ouabain
Method: HeLa cells (ATCC, Manassas, Va.) were cultured in DMEM Glutamax with 10% heat-inactivated fetal bovine serum (FBS). For transfections, Fugene 6 reagent (Roche Boehringer Mannheim, Germany) was used according to manufacturer's description. Briefly, 2 μg of plasmid DNA per 10^5 cells were complexed with 5 μl of the reagent in a 100 μl volume of cell culture medium and added to cells after 15 min of incubation. After 24 h, ouabain was added to each well to a final concentration of 10 μM. Cell viability was documented following 24 h incubation.
(§1) For transfections, Fugene 6 reagent (Roche Boeringer Mannheim, Germany) was used according to the manufacturer's instructions. Briefly, 2 μg of plasmid DNA per 10^5 cells were complexed with 5 μl of the reagent in a 100 μl volume of cell culture medium DMEM Glutamax and added to cells after 15 min of incubation. Ouabain (Sigma, St. Louis, Mo., USA) was dissolved in DMEM as a stock solution of 10 mM. For selection experiments 10-500 μM was used. Ouabain was added to the cells at 24 h after transfection. At 48 hours post transfection the cells were trypsinized and transferred to ouabain-free medium. Cell survival was quantified spectrophoto-metrically using the WST-1 cell proliferation reagent (Roche) according to the manufacturer's instructions.

HeLa cells [2] = assay: Ouabain dose response assay in transfected HeLa cells, WST-1 cell proliferation reagent; type: cell-based, human; conditions: 10-500 μM ouabain, 24 hours
Method: as §1

COS-7 cells = assay: Ouabain toxicity assay, transiently transfected COS-7 cells, cell viability; type: cell-based; conditions: wild type COS-7, 10 μM ouabain
Method: COS-7 cells (ATCC, Manassas, Va.) were cultured and transfected as above. After 48 h incubation in 10 μM ouabain, the cells were washed twice in PBS (Gibco) and incubated for 15 min in 0.025% porcine trypsine in saline (Sigma). The trypsin was inactivated by FBS addition. The cells were re-incubated in 10 μM ouabain. Cell viability was documented following 48 h incubation.

SMILES: C[C@@H]1O[C@@H](O[C@H]2C[C@@H](O)[C@]3(CO)[C@H]4[C@H](O)C[C@]5(C)[C@@H](C6=CC(=O)OC6)CC[C@]5(O)[C@@H]4CC[C@]3(O)C2)[C@H](O)[C@H](O)[C@H]1O [ouabain]
- ouabain induced cell death of wild type cells (HeLa cells [1]): induces cell death
- effect of ouabain on control and un-transfected cells (WST-1) (HeLa cells [2]): eliminated
- ouabain induced cell death of wild type cells (COS-7 cells): induces cell death
